Assay results as given in publication PMC5785958, “New role of phenothiazine derivatives as peripherally acting CB1 receptor antagonizing anti-obesity agents” (Scientific Reports, 2018).

Experiments:
[1] = design: method as in PMID 20664173; conditions: cited from earlier work
[2] = tested on: Wistar rats; experiment: Acute hypophagic response in 24 h food-deprived rats; assay type: in vivo, rat; conditions: for effect on food intake (in words): 2 h; for food intake (control = 100%): 10 mg/kg
Description: As a preliminary screening, the synthesized compounds were evaluated for acute hypophagia in rats and the results are summarized in Fig. 5. Twenty four hour food deprived Wistar rats were given weighed amounts of food pellets after administration of the test compounds. Quantum of food consumed by the control group of animals was considered as 100%.
Male Wistar rats weighing 200–250 g were used in the present study to assess the acute hypophagic response. Animals were housed individually in a plexi-glass cage in a temperature and humidity controlled room with a 12 h light/dark cycle. Standard chow pellets and water were made available ad libitum. Animals were handled daily for a week before performing the actual experiments. The animal study protocol was approved by the Institutional Animal Ethics Committee (IAEC) of Faculty of Pharmacy, The Maharaja Sayajirao University of Baroda (Approval no. MSU/IAEC/2014-15/1401). The experiments were conducted in accordance to the guidelines of CPCSEA (Committee for the Purpose of Control and Supervision of Experiments on Animals), Ministry of Environment & Forests, Govt. of India. We tried our best to reduce the number of animals and their suffering.
The acute effect of the synthesized test compounds on feeding behavior was assessed in 24 h food-deprived animals. Before performing the experiments, the bedding material was removed from the cage. The animals were deprived of feed for 24 h with free access to water. The fasted animals were administered with the test compounds (10 mg/kg, p.o.). After 30 min of administration, weighed amounts of food pellets were served to the animals. Amount of food pellets and food spillage remaining after 2 h were weighed to find out the amount of food consumed by the animals.

[3] = PAMPA-BBB in vitro permeability assay; assay type: in vitro ADME, porcine; design: key to Prediction (penetration in CNS): CNS- indicates low passive CNS permeation; conditions: for Prediction (penetration in CNS): from PAMPA-BBB Pe, Pe less than 3.8 × 10^−6 cm s^−1 = low BBB permeation; for Papp at 120 min, 100 µg/ml: pig, PAMPA-BBB, porcine brain lipid, PBS/ethanol (70:30), 25 °C, mean ± SEM of three experiments, read-out: Pe
Description: As discussed above, BBB permeation of the available CB1 receptor antagonists limits their therapeutic utility. A successful CB1 receptor antagonist to be used as anti-obesity agent must be devoid of BBB permeability. […] In this study, the ability of the test compounds to cross the BBB was determined by the well established in vitro model PAMPA-BBB assay. This simple and rapid model has the advantage to predict passive BBB permeation with high accuracy[57],[58]. The in vitro permeability (Pe) of the test compounds through the lipid extract of porcine brain was determined in PBS/ethanol (70:30).
To assess the in vivo brain permeability potential of the test compounds, PAMPA assay for BBB was performed as reported by Di. et al.[57]. The donor microplate (polyvinylidene fluoride (PVDF) membrane, diameter 25 mm, pore size 0.45 µm Millipore) and the acceptor microplate were used for the experiment. The acceptor microplate was filled with 200 µl phosphate buffer saline (PBS) and ethanol in the ratio of 70:30 whereas the donor microplate filter surface was impregnated with porcine brain lipid (Avanti Polar Lipids) in dodecane (Sigma) (4 µl of 20 mg/ml). 200 µl of the test compound (100 µg/ml in PBS/ethanol) was added to the donor well. A sandwich was formed by placing the donor plate carefully on the acceptor plate, and the plates were kept undisturbed for 120 min at 25 °C. The donor plate was carefully detached after the incubation period and concentration of the test compound in the acceptor wells was determined using UV spectroscopy. Each sample was analyzed in four wells at five different wavelengths, and at least in three independent runs. Assay validation was performed by using nine commercial quality standard drugs of known BBB permeability[75] in which the reported permeability values of the standards were compared with their experimental permeability values, which gave a linear relationship, Pe(exp.) = 1.171Pe(bibl.) + 1.489 (R^2 = 0.983)[57],[58].

[4] = target: T1, CB1 receptor (Rattus norvegicus, UniProt P20272); experiment: In vivo CB1 receptor antagonistic activity against WIN-55212-2 hyperphagia; conditions: 24 h fasted rats, test compound 10 mg/kg p.o., WIN-55212-2 2 mg/kg i.p.
T1 construct: from tissue; host or cells: whole living animal (male Wistar rat); receptor endogenous in central and peripheral tissues
T1 sequence (P20272 whole entry): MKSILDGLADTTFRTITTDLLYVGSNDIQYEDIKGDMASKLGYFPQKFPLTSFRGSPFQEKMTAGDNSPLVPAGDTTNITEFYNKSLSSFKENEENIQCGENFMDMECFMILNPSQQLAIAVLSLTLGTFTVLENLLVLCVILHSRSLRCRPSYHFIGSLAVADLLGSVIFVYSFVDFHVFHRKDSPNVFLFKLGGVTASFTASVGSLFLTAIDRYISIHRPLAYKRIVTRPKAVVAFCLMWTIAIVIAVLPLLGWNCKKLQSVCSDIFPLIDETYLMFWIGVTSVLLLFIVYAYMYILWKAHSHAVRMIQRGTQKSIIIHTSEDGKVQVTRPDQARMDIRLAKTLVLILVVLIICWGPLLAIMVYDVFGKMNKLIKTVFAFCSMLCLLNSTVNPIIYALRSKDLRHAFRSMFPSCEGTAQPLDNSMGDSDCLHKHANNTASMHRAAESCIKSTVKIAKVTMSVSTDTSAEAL
Description: Here also, the quantity of feed consumed by the control group animals was taken as 100%.
In another set of experiments, in vivo CB1 receptor antagonistic activity of the test compounds was assessed.

[5] = tested on: CB1R; design: method as in PMID 20652930; conditions: read-out: CB1R antagonist activity EC50; cited from earlier work
[6] = 24 h fasted male Wistar rats, 10 mg/kg p.o.
[7] = 24 h fasted male Wistar rats, 10 mg/kg p.o., food served after 30 min, intake over 2 h

Cc1c(C(=O)NN2CCS(=O)(=O)CC2)nn(-c2ccc(Cl)cc2Cl)c1-c1ccc(C#CCCC#N)cc1 [AM-6545]
brain penetration (in words) [1]: limited brain penetration

COc1ccc2c(c1)N(C(=O)CSc1ncc(C#N)c(N)n1)c1ccccc1S2 [Compound 23, 4-Amino-2-(2-(2-methoxy-10H-phenothiazin-10-yl)-2-oxoethylthio)pyrimidine-5-carbonitrile]
effect on food intake (in words) [2, 6]: significant hypophagic activity
food intake (control = 100%) [2, 7]: 19–43%
food intake (control = 100%) ([2]; po): 19%
Prediction (penetration in CNS) [3]: CNS-
Papp at 120 min, 100 µg/ml [3]: 3.08 ± 0.16 ×10⁻⁶ cm/s
effect on hyperphagic effect of WIN-55212-2 (in words) [4]: suppressed the hyperphagic effect of WIN-55212-2
melting point: 215 to 217 °C

CCOC(=O)c1cnc(SCC(=O)N2c3ccccc3Sc3ccc(C(F)(F)F)cc32)nc1N [Compound 25, Ethyl 4-amino-2-(2-(2-trifluoromethyl-10H-phenothiazin-10-yl)-2-oxoethylthio)-pyrimidine-5-carboxylate]
effect on food intake (in words) [2, 6]: significant hypophagic activity
food intake (control = 100%) [2, 7]: 19–43%
food intake (control = 100%) ([2]; po): 37%
Prediction (penetration in CNS) [3]: CNS-
Papp at 120 min, 100 µg/ml [3]: 2.72 ± 0.19 ×10⁻⁶ cm/s
effect on hyperphagic effect of WIN-55212-2 (in words) [4]: suppressed the hyperphagic effect of WIN-55212-2
melting point: 148 to 151 °C

CCOC(=O)c1cnc(SCC(=O)N2c3ccccc3Sc3ccc(OC)cc32)nc1N [Compound 27, Ethyl 4-amino-2-(2-(2-methoxy-10H-phenothiazin-10-yl)-2-oxoethylthio)pyrimidine-5-carboxylate]
effect on food intake (in words) [2, 6]: significant hypophagic activity
food intake (control = 100%) [2, 7]: 19–43%
food intake (control = 100%) ([2]; po): 19%
Prediction (penetration in CNS) [3]: CNS-
Papp at 120 min, 100 µg/ml [3]: 2.8 ± 0.58 ×10⁻⁶ cm/s
effect on hyperphagic effect of WIN-55212-2 (in words) [4]: suppressed the hyperphagic effect of WIN-55212-2
melting point: 104 to 106 °C

Nn1c(SCC(=O)N2c3ccccc3Sc3ccc(Cl)cc32)nnc1-c1ccncc1 [Compound 34, 2-(4-Amino-5-(4-pyridyl)-4H-1,2,4-triazol-3-ylthio)-1-(2-chloro-10H-phenothiazin-10-yl)ethanone]
effect on food intake (in words) [2, 6]: significant hypophagic activity
Prediction (penetration in CNS) [3]: CNS-
Papp at 120 min, 100 µg/ml [3]: 2.09 ± 0.82 ×10⁻⁶ cm/s
effect on hyperphagic effect of WIN-55212-2 (in words) [4]: suppressed the hyperphagic effect of WIN-55212-2
melting point: 225 to 227 °C

CCc1c(C(=O)NN2CCCCC2)nn(-c2ccc(Cl)cc2Cl)c1-c1ccc(C#Cc2ccc(C(F)(F)F)cc2)s1 [TM38837]
EC50 [5]: 8.5 nM
